The nature of data set [1]: peroxidation (malondialdehyde formation) of homogenized rat bowel. Here is the method: These drugs were also tested for their ability to enhance the preservation of tissues stored for subsequent transplantation. The small bowel was removed from rats, washed free of luminal contents and the tissue stored in University of Wisconsin (UW) preservative media ±40 uM PX-13 or mepacrine for 48 hrs. The graft was then transplanted into rats with or without intravenous (IV) infusion of 20 mg/kg PX-13 or mepacrine at the time of transplantation. Upon transplantation, the bowel is immediately injured as evidenced by tissue darkening within two minutes. […] Both PX-13 and mepacrine inhibit the peroxidation (malondialdehyde formation) of homogenized rat bowel, an indication that the membrane-stabilizing, PLA2-inhibitors, also have anti-oxidant activity.

The test system of data set [2] is rat dorsal root ganglion cells. As to the kind of experiment: cultured rat dorsal root ganglion cells exposed to snake venom PLA2. Format: cell-based. As to conditions: 1-3 umols/min/mg for 60 min.
In a further data set the test system is clone W2 (P.falciparum). Description: 3H-hypoxanthine incorporation, P.falciparum clone W2. Format: cell-based. As to conditions: Plasmodium falciparum, W2; chloroquine resistant, mefloquine sensitive clone, RBC culture; read-out: IC50 growth.
In another data set the test system is platelets. Description: platelet aggregation. The settings on record: 25-μM dose. In kind it is cell-based. An excerpt:
(§1) Applicants have also observed that PX-13 inhibited serotonin release by thrombin-stimulated platelets. This observation supports the contention that the PX compounds of the present invention may block release of inflammatory mediators in the coagulation cascade. This observation also supports the use of PX compounds to inhibit thrombin-induced platelet aggregation and to act as anti-clotting agents.

The target of data set [3] is T1, purified human disc type II, PLA2 (Homo sapiens, UniProt P14555).
T1 construct: the purified human disc type II, PLA2; from tissue; host or cells: human vertebral (herniated) disc
As to the kind of experiment: inhibition of purified human disc type II PLA2. In kind it is biochemical. Here is the method: Both PX-13 and PX-18 inhibit the purified human disc type II, PLA2. PLA2 activity was measured as described in Franson et al., Prostaglandins, Leukotrienes and Essential Fatty Acids, 43:63-70, 1991, which is herein incorporated by reference in its entirety.

For the next data set, the system named is epidermal layer. Description: transepidermal water loss. In kind it is in vivo, human. Here is the method: (§2) Two PX compounds PX-11 and PX-13 were evaluated in a cream formulation prepared under GMP. The chemicals were formulated into a bland cream and evaluated in the following human or mouse skin tests: (1) occluded patch test for irritation; (2) cell turnover rate; (3) transepidermal water loss; (4) skin moisturization; and (5) reduction in erythema after induced sunburn. The human skin tests were conducted on three volunteer female subjects, ages 29-32; a cream base with no added active was included as a control, while the untreated skin served as an additional basis for evaluation. Sunburn tests were performed on a total of 30 hairless albino mice. 3. Transepidermal water loss. This parameter was measured by affixing a flow cell on the forearm site, applying the cream, waiting 20 minutes, then flushing the volume with nitrogen and noting the moisture content of the effluent gases.

The next data set concerns clone D6 (P. falciparum). As to the kind of experiment: 3H-hypoxanthine incorporation, P.falciparum clone D6. In kind it is cell-based. The settings on record: Plasmodium falciparum, D6, read-out: IC50 growth.
Data set [4] has as its system thrombin-stimulated platelets. Description: serotonin release by thrombin-stimulated platelets. Format: cell-based.
Source text: as §1

The test system of the next data set is small bowel graft. As to the kind of experiment: small bowel transplantation ischemia-reperfusion injury. Format: in vivo, rat. Here is the method: These drugs were also tested for their ability to enhance the preservation of tissues stored for subsequent transplantation. The small bowel was removed from rats, washed free of luminal contents and the tissue stored in University of Wisconsin (UW) preservative media ±40 uM PX-13 or mepacrine for 48 hrs. The graft was then transplanted into rats with or without intravenous (IV) infusion of 20 mg/kg PX-13 or mepacrine at the time of transplantation.

In a further data set the test system is outer skin layers. Description: skin moisturization (20 megahertz ultrasound). Format: in vivo, human. The settings on record: for Ultrasound Density Score: 30 minutes after application. Here is the method: as §2, with “4. Skin moisturization. Skin moisturization” for “3. Transepidermal water loss. This parameter”, “using 20 megahertz ultrasound (the presence of moisture produces” for “by affixing”, “density decrease in” for “flow cell on”, “outer skin layers), before and 30 minutes after product application to” for “forearm site, applying”, “forearm.” for “cream, waiting 20 minutes, then flushing the volume with nitrogen and noting the moisture content of the effluent gases.”

The test system of data set [5] is rat dorsal root ganglion cells. As to the kind of experiment: cultured rat dorsal root ganglion cells exposed to human disc PLA2. In kind it is cell-based. Here is the method:
Primary cultures of rat dorsal root ganglion cells were used. Cells were washed 3-times with media to remove serum. Then, PX-13 (20 uM) in HEPES buffer or a buffer control was applied to the cells. After 10 min of incubation, purified human disc PLA2 (activity 1 umol/min) was added and the cells were incubated for an additional 60-90 min. Cells were then observed, fixed, and photographed 1.5 hrs after addition of PLA2.

Data set [6] deals with ultraviolet-induced erythema. Description: protection against ultraviolet-induced erythema. Format: in vivo, hairless albino mice. As to conditions: 1 = Best, 4 = Worst. Here is the method:
The human skin tests were conducted on three volunteer female subjects, ages 29-32; a cream base with no added active was included as a control, while the untreated skin served as an additional basis for evaluation. Sunburn tests were performed on a total of 30 hairless albino mice.
5.Protection against ultraviolet-induced ervthema. The protection against ultraviolet-induced erythema (i.e., the burn and irritation produced after exposure to ultraviolet radiation), was measured by first irradiating 12 mice with destructive 3130 angstrom (Å) rays, applying the creams, and then evaluating the skin cells for erythema.

The test system of a further data set is ischemic bowel. Description: PLA2 release from ischemic bowel into media. The settings on record: 24 hrs of ischemia. An excerpt: The addition of PX-13 reduced the enzyme release by more than 80% during 24 hrs of ischemia.

These results are taken from patent US6423855B1, “Cytoprotective compounds” (Virginia Commonwealth University, priority 1996, dated 2002).

In brackets after ≈: the same amount, converted by molar mass.

One may read the IC50 as the concentration at which inhibition is half-maximal.

T1 sequence (P14555 21-144): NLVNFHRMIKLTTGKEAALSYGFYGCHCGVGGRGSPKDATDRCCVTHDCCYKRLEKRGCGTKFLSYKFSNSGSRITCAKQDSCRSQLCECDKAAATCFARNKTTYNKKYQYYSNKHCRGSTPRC

In the case of `CCCCCCCC/C=C\CCCCCCCC(=O)OCC(COC(=O)CCCCCCC/C=C\CCCCCCCC)(COC(=O)CCCCCCC/C=C\CCCCCCCC)NCCS(=O)(=O)O` [PX-13, 2-[Tris(oleoyloxymethyl)methylamino]-1-ethanesulfonic acid], in data set [1], the “peroxidation (malondialdehyde formation)” value is on record as “inhibit”. In data set [2], the “protection against toxicity of purified snake venom PLA2” value is on record as “protected”. Also, the figures for the IC50 (in the data set with clone W2 (P.falciparum); in [3]; in the data set on clone D6 (P. falciparum)) were 13 µg/mL (≈ 12.7 µM), 2500 nM and 17 µg/mL (≈ 16.6 µM), respectively. The platelet aggregation entry in the data set on platelets was “inhibited”. The “% Change in Transepidermal Water Loss” value with epidermal layer (forearm, 20 minutes after applying cream) is listed as −8.5%. In addition, in the data set on epidermal layer (in vivo), the “effect on water loss from the epidermal layer” value is listed as “functioned as an occluding moisturizer”. For the same compound, the serotonin release entry in [4] is “inhibited”. Also, the “gross and microscopic injury to tissue” value in the data set on small bowel graft (40 uM in UW media 48 hrs, with or without 20 mg/kg IV at transplantation) is “dramatically reduced”. Moreover, the “bowel color after transplantation” value in the data set with small bowel graft (rat, in vivo) is reported as “maintained normal bowel color”. The “protection against ischemia and reperfusion injury” value in the data set on small bowel graft (small bowel transplantation) is listed as “protect”. In addition, the “Ultrasound Density Score” value in the data set with outer skin layers (Subject 1, 7 = Best, 1 = Baseline) is given as 1; in the data set with outer skin layers (Subject 2), 2; with outer skin layers (Subject 3), −1. The “Ultrasound Density Score Total” value in the data set on outer skin layers (Total of 3 subjects, 7 = Best, 1 = Baseline) amounted to 2. For the same compound, the “moisturization properties” value in the data set on outer skin layers (in vivo) was “not good moisturizers”. The “cell morphology, compound alone” value in data set [5] (20 uM alone) is reported as “indistinguishable from control cultures”. Further, the “cell morphology, compound + human disc PLA2” value in data set [5] (20 uM, PLA2 activity 1 umol/min, 60-90 min) is listed as “indistinguishable from control cultures”. In data set [6] (Mean), the “Post-Radiation Erythema Ranking Mean” value amounted to 4.7. Moreover, the “Post-Radiation Erythema Ranking” value in [6] (Subject 3) is given as 4. Also, the “reduction of PLA2 enzyme release” value in the data set on ischemic bowel is “more than 80%”.
